{"source": "patent US9604987B2", "about": "“Synthesis of autophagy inducing compound and the uses thereof” (Hong Kong Baptist University, priority 2012, dated 2017)", "key": {"N2a cells": {"system": "N2a cells", "test": "Western blot of autophagy marker LC3-II in N2a cells", "format": "cell-based, mouse", "conditions": "N2a, oxindole alkaloids, 12 hours", "protocol": "Native and denatured PAGE and Western blotting analysis. Samples to be run under denaturing conditions were lysed with RIPA lysis buffer (150 mM NaCl, 50 mM Tris-HCl, 0.35% sodium deoxycholate, 1 mM EDTA, 1% NP40, 1 mM PMSF, 5 μg/ml aprotinin, 5 μg/ml leupeptin). Samples for native gels were lysed with detergent-free lysis buffer (50 mM Tris/HCl pH 7.4, 175 mM NaCl, 5 mM EDTA pH 8.0, 1 mM PMSF, 5 μg/ml aprotinin, 5 μg/ml leupeptin), and sheared 5 times through a 28-gauge needle followed by 2 times of sonication for 5 seconds according to previously described protocol. For denaturing, SDS-PAGE was performed using Tris-Glycine SDS running buffer and SDS sample buffer, and for native conditions, native-PAGE was run with detergent-free Tris-Glycine running buffer (BN2007, Invitrogen) and 4× native sample buffer (BN2003, Invitrogen) on a pre-casted native PAGE gel (BN1002BOX, Invitrogen). The proteins on the gels were then transferred to PVDF membrane (RPN303F, GE Healthcare) and processed for immunoblotting. Membranes were blocked with 5% non-fat milk and probed with the appropriate primary and secondary antibodies. The desired bands were visualized using the ECL kit (32106, Pierce). The band density was quantified using the ImageJ program and normalized to that of the control group.\nIn order to confirm the neuronal autophagy inducing activity of Cory B (its chemical structure is shown in FIG. 1A), mouse neuroblastoma N2a, rat phenochromocytoma PC12 and human neurobastoma SH-SY5Y are treated with different concentrations of Cory B for 24 hours and cell lysates are subjected to western blotting analysis of LC3-II expression which is an autophagy-specific marker.\nTo confirm that enhancement of autophagy markers by Cory B is due to induction of autophagy rather than blockage of autophagosome maturation, N2a cells are treated with 25 μM Cory B or 30 μM lysosome inhibitor CQ together with Cory B for 12 hours. Cell lysates are subject to western blot analysis. Data are presented as the mean±SEM from 3 independent experiments (***p<0.001, one-way ANOVA for multiple comparison and Tukey's test as post hoc test). Both LC3-II levels and the number of GFP-LC3 puncta in the Cory B and CQ co-treatment group are much higher than in the CQ-alone treatment group (FIG. 2A-D). Meanwhile, Cory B induces GFP-LC3 puncta formation is abolished by treatment of 5 mM autophagy inhibitor 3-MA for 24 hours (FIG. 2C, D). Cells were fixed in 4% paraformaldehyde and analyzed under a confocal microscope. Data are presented as the mean±SEM of one representative experiment from three independent experiments. (***p<0.001, one-way ANOVA for multiple comparison and Tukey's test as post hoc test). […] Thus, Cory B is indeed an autophagy inducer in neuronal cells.\nTo compare the activities of oxindole alkaloids on autophagy induction, LC3II expression levels in N2a cells after treatment with Corynoxine B (Cory B) (FIG. 8A), Corynoxine (Cory) (FIG. 8B), Rhynchophylline (Rhy) (FIG. 8C) and Isorhynchophylline (IsoRhy) for 12 hours are examined.\nIn order to examine the pro-autophagic activities of the synthesized Cory B analogues, neuroblastoma 2a, a neuronal cell line, are treated with various concentrations of the analogues for 12 hrs. The cells are then harvested and lysed with RIPA buffer (150 mM NaCl, 50 mM Tris-HCl pH 7.4, 0.35% sodium deoxycholate, 1 mM EDTA, 1% NP40, 1 mM PMSF, 5 μg/ml aprotinin, 5 μg/ml leupeptin). The sample are lysed on ice with occasional vortex for 30 min, and then centrifuged at 14,000 rpm for 15 min at 4° C. The supernatant are collected and denatured at 95° C. in sample buffer for 5 min. The denatured samples are then separated on 15% SDS-PAGE gels and transferred to PVDF membrane. Membranes are then blocked with 5% non-fat milk and probed with appropriate primary and secondary antibodies. The protein signals of LC3II, marker protein of autophagy, are finally visualized with ECL kit and the protein bands density are quantified by ImageJ program. […]"}, "N2a Swedish APP cells": {"system": "N2a Swedish APP cells", "test": "APP reduction in N2a Swedish APP cells (western blot)", "format": "cell-based, mouse", "conditions": "different concentrations, with or without CQ and 3MA", "protocol": "N2a Swedish APP cells are incubated with different concentration of Cory and Cory B in the presence or absence of CQ and 3MA. […] Tg2567 APP mice, 3 months old JNPL P301 Tau mice and WT mice intraperitoneally are administrated with 20 mg/kg/d CoryB."}}}
{"compound": "CC[C@@H]1CN2CC[C@@]3(C(=O)Nc4ccccc43)C2C[C@@H]1C(=COC)C(=O)OC", "note": "(stereo partly shown) [Cory, corynoxine]", "values": [{"measurement": "autophagy induction (LC3II expression level)", "setting": "N2a cells", "result": "significantly activate autophagy"}, {"measurement": "full length and CTF APP", "setting": "N2a Swedish APP cells", "result": "dose-dependently reduce both full length and CTF APP"}]}
{"compound": "CC[C@H]1CN2CC[C@@]3(C(=O)Nc4ccccc43)[C@@H]2C[C@@H]1/C(=C\\OC)C(=O)OC", "note": "[IsoRhy, Isorhynchophylline, reference compound]", "values": [{"measurement": "autophagy induction (LC3II expression level)", "setting": "N2a cells", "result": "did not show any activity on autophagy induction"}]}
{"compound": "CC[C@H]1CN2CC[C@]3(C(=O)Nc4ccccc43)[C@@H]2C[C@@H]1/C(=C\\OC)C(=O)OC", "note": "[Rhy, Rhynchophylline, reference compound]", "values": [{"measurement": "autophagy induction (LC3II expression level)", "setting": "N2a cells", "result": "did not show any activity on autophagy induction"}]}
